Reference: US12076304B2, “Compositions comprising 15-HEPE and methods of treating or preventing hematologic disorders, and/or related diseases” (priority 2020, dated 2024)
Marks after values point to notes of the source that are not given here.

Assays:
[1] = system: TGF-β induced epithelial mesenchymal transition (EMT) protein production; experiment: TGF-β induced EMT protein production in HepG2 cells; type: cell-based, human; conditions: increasing doses for 1 hour, then 200 pM TGF-β for 48 hours
Method: (§1) The effects of 15-HEPE on TGF-β-induced signaling and cellular responses were determined. To test the effect of 15-HEPE on TGF-β-induced signaling, the activities of 15-HEPE to regulate TGF-β-stimulated Smad2 phosphorylation and nuclear translocation, both of which are key signaling events leading to TGF-β-induced cellular responses, were tested. One important biological activity of TGF-β is transcriptional activation of genes responsible for epithelial-mesenchymal transition (EMT), which is a crucial event in wound healing, tissue fibrosis, and cancer progression. The effect of 15-HEPE on TGFβ-induced epithelial mesenchymal transition related proteins (such as fibronectin, PAI-1, and N-cadherin etc.) expression in HepG2 and LXR cells were assessed. HepG2 cells (human hepatoma cell line) were treated in increasing doses of 15-HEPE stage II in DMEM containing 0.1% of FBS for 1 hour and continually stimulated with or without 200 picomolar (pM) of TGF-β for 48 hours.
(§2) HepG2 cells (human hepatoma cell line) were treated in increasing doses of 15-HEPE stage II in DMEM containing 0.1% of FBS for 1 hour and continually stimulated with or without 200 picomolar (pM) of TGF-β for 48 hours. The two panels shown in FIG. 18A are two separate experiments run under the same experimental conditions.

[2] = system: TGF-β-stimulated intracellular signaling (SMAD2/3 phosphorylation); experiment: TGF-β-stimulated SMAD2/3 phosphorylation in LX2 liver stellate cells; type: cell-based, human; conditions: 0 μM to 100 μM for 24 hours, then 30 min TGF-β
[3] = system: TβR-II (type II TGF-β receptor); experiment: Sucrose density gradient analysis in Mv1Lu cells, TβR-II; type: cell-based, mink; conditions: for translocation and degradation of type II TGF-β receptors: summary of Example 3, free acid or ethyl ester form
Method: (§3) Sucrose gradient ultracentrifugation and confocal microscopy were used to identify 15-HEPE induced microdomain translocation of TGF-β receptors […]. Sucrose density gradient analysis of TGF-β receptors was conducted in the plasma membranes of Mv1Lu cells (mink lung epithelial cell) treated with 100 μM of 15-HEPE and an equal volume of DMSO (dimethyl sulfoxide) at 37° C. for 0, 1, 4, and 24 hours, and the cell lysates from these treated cells were subjected to sucrose density gradient ultracentrifugation. The sucrose gradient fractions were then analyzed by Western blot analysis using anti-Tβ(type I TGF-β receptor), anti-TβR-II (type II TGF-β receptor), anti-TβR-III (type III TGF-β receptor, betaglycan), anti-EGFR (epidermal growth factor receptor), and anti-caveolin-1 antibodies. The lipid raft/caveolae, and non-lipid raft microdomain localization of TβR-I, TβR-II, TβR-III, EGFR and caveolin-1 in the plasma membrane of untreated cells or cells treated with 15-HEPE were assessed to determine the effects of 15-HEPE on the membrane microdomain localization of the TGF-β receptors.
A 15-HEPE sucrose density gradient analysis of TGF-β receptors was conducted in the plasma membranes of mink lung epithelial cell (Mv1 Lu) cells treated with 100 μM of 15-HEPE and an equal volume of dimethyl sulfoxide (DMSO) at 37° C. for 0, 1, 4, and 24 hours, and the cell lysates from these treated cells were subjected to sucrose density gradient ultracentrifugation. The sucrose gradient fractions were then analyzed by Western blot analysis using anti-TβR-I (type I TGF-β receptor—FIG. 18C), anti-TβR-II (type II TGF-β receptor-FIG. 18D), anti-TβR-III (type III TGF-β receptor, betaglycan-FIG. 18E), anti-EGFR (epidermal growth factor receptor-FIG. 18F), and anti-caveolin-1 antibodies (FIG. 18G). Fractions 4 to 5 contained lipid rafts/caveolae whereas fractions 7-10 were non-lipid raft fractions. […] Stars(*) indicate 15-HEPE increased abundance of TβR-I (24 hours) in the fraction in comparison with that of the control and shorter treatment durations (FIG. 18C). […] The triangles (▾) indicate translocation and decreased abundance of TβR-II in the fraction in comparison with control cells (FIG. 18D).

Sprague Dawley rats [4] = experiment: 26 week oral gavage toxicity study in rats: haematology; type: in vivo; conditions: 26 weeks; for Red blood cell count (RBC), Mean / Red Cell Distribution Width (RDW), Mean / Reticulocyte count (RETIC), Mean: male rats; for Red blood cell count (RBC), Mean: vehicle 8.38; for Red Cell Distribution Width (RDW), Mean: vehicle 14.98; for Reticulocyte count (RETIC), Mean: vehicle 219.51
Method: (§4) The test and control items were administered to the appropriate animals by once daily oral gavage 7 days a week for a minimum of 26 weeks. The volume for each animal was based on the most recent body weight measurements. The doses were given using a syringe with attached gavage cannula. The first day of dosing was designated as Day 1. The dosing formulations were removed from the refrigerator and stirred for at least 30 minutes before dosing. The dosing formulations were also stirred continuously during dosing.
(§5) Sample Collection: Blood was collected via the tail vein unless immediately prior to necropsy, when blood was collected from the orbital sinus under non-recoverable isoflurane anesthesia. Blood was collected in ascending animal order unless samples were collected prior to necropsy where the order of euthanasia was followed. Additional blood samples were obtained (e.g. due to clotting of non-serum samples) if permissible sampling frequency and blood volume were not exceeded. After collection, samples were transferred to the appropriate laboratory for processing. Samples were collected according to the following table.
Hematology: A 0.5 mL blood sample was collected using the anticoagulant K2EDTA. Blood smears were labelled, stained, and stored. The blood smears were analyzed according to the following parameters.
(§6) Animals: The study used male and female Sprague Dawley rats purchased from Charles River UK Limited (Margate, Kent, UK). The target age at the initial dosing was 7-8 weeks. The target weight at the initial dosing was 175-300 g (males) and 120-250 g (females). Each animal was identified using a subcutaneously implanted electronic cylindrical, “glass-sealed” TROVAN microchip.

Sprague Dawley rats [5] = experiment: 26 week oral gavage toxicity study in rats: coagulation; type: in vivo; conditions: 26 weeks; for Fibrinogen (FIB), Mean / Prothrombin Time (PT), Mean / Activated Partial Thromboplastic Time (APTT), Mean: male rats; for Fibrinogen (FIB), Mean: vehicle 2.61; for Prothrombin Time (PT), Mean: vehicle 10.25; for Activated Partial Thromboplastic Time (APTT), Mean: vehicle 12.92; for APTT compared to control / FIB concentration compared to control / PT compared to control: rats
Method: as §4, §5
Coagulation: A 0.5 mL blood sample was collected using the anticoagulant 3.8% (w/v) trisodium citrate for processing to plasma. To assess coagulation the following coagulation parameters were measured.
as §6

Sprague Dawley rats [6] = experiment: 26 week oral gavage toxicity study in rats: tolerability, clinical signs; type: in vivo; conditions: 6 g/kg/day oral gavage, replaced with 3 g/kg/day
Method: as §4
Due to the onset of clinical signs, including hunched posture, erect fur and abnormal gait and body weight loss, animals 3206M, 3515F and 3703F were given a dosing holiday from Day 45 and remaining Group 3 animals were given a dosing holiday from Day 48. Animals will start dosing at the lower dose level (3000 mg/kg/day) from Day 64. The following tables illustrate the treatments (Table 23) and animal groupings (Table 24) that were used in the study.
Mortality/moribundity checks were made daily. […] Animals were not removed from the cage during observation, unless necessary for identification or confirmation of possible findings.
Post-dose observations were made regularly throughout the day. […] The onset, intensity, and duration of these signs were recorded; particular attention was paid to the animals during and for the first hour after dosing. […]

rats = conditions: oral once daily, 26 weeks, highest dose tested 1 mg/kg/day; cited from earlier work
[7] = 0.5% HPMC dosing formulations; same preparation and storage conditions (4° C.); concentrations bracketing those used; cited from earlier work
type II TGF-β receptor = target: T1, type II TGF-β receptor (Homo sapiens, UniProt P37173); experiment: Type II TGF-β receptor degradation in HepG2 cells; type: cell-based; conditions: increasing doses for 1 hour, then 200 pM TGF-β for 48 hours
T1 construct: endogenous in cells; host or cells: HepG2
T1 sequence (P37173 23-567): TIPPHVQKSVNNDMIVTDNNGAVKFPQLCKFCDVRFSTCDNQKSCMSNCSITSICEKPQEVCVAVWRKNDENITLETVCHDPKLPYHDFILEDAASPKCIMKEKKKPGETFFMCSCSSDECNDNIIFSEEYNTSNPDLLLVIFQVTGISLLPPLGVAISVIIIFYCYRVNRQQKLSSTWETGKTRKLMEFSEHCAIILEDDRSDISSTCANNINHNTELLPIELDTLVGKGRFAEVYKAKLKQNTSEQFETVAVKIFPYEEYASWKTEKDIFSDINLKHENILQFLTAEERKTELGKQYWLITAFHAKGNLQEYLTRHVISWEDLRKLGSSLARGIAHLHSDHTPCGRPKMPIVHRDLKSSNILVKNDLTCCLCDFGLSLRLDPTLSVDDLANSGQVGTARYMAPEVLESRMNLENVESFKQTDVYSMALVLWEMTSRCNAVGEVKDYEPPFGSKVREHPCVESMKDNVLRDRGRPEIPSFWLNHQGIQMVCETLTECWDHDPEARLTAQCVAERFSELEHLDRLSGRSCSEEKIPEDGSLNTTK
Method: as §1, §2

[8] = system: TβR-I (type I TGF-β receptor); experiment: Sucrose density gradient analysis in Mv1Lu cells, TβR-I; type: cell-based, mink; conditions: 100 μM
Method: as §3, with “receptors. […]” for “receptors.”

[9] = system: TβR-III (type III TGF-β receptor, betaglycan); experiment: Sucrose density gradient analysis in Mv1Lu cells, TβR-III; type: cell-based, mink; conditions: 100 μM, 0-24 hours
Method: as §3, with “receptors. […]” for “receptors.”

[10] = system: EGFR (epidermal growth factor receptor); experiment: Sucrose density gradient analysis in Mv1Lu cells, EGFR; type: cell-based, mink; conditions: 100 μM, 0-24 hours
Method: as §3, with “receptors. […]” for “receptors.”

caveolin-1 = experiment: Sucrose density gradient analysis in Mv1Lu cells, caveolin-1; type: cell-based, mink; conditions: 100 μM, 0-24 hours
Method: as §3, with “receptors. […]” for “receptors.”

[11] = 6000/3000 mg/kg/day oral gavage

## CC/C=C\C[C@H](O)/C=C/C=C\C/C=C\C/C=C\CCCC(=O)OCC [15-HEPE EE, 15-HEPE ethyl ester]
[1]
  TGF-β induced EMT (pro-fibrotic) protein production: blocked
[2]
  TGF-β-stimulated intracellular signaling (SMAD2/3 phosphorylation): inhibited
[3]
  translocation and degradation of type II TGF-β receptors: induced translocation and degradation

## CC/C=C\C[C@H](O)/C=C/C=C\C/C=C\C/C=C\CCCC(=O)OCC [15(S)-HEPE EE]
Sprague Dawley rats [4]; 2000 mg/kg/day oral gavage
  Red blood cell count (RBC), Mean: 8.67 10^∧12/L
  Red Cell Distribution Width (RDW), Mean: 13.91** %
  Reticulocyte count (RETIC), Mean: 154.60* 10^∧9/L
Sprague Dawley rats [4]; [11]
  Red blood cell count (RBC), Mean: 8.81** 10^∧12/L
  Red Cell Distribution Width (RDW), Mean: 13.60** %
  Reticulocyte count (RETIC), Mean: 141.46** 10^∧9/L
Sprague Dawley rats [4]; rats, 2 g/kg/day dose
  RDW compared to control: significant decrease
  RETIC compared to control: significant decrease
Sprague Dawley rats [4]; rats, 3 g/kg/day dose
  RBC compared to control: significant increase
  RDW compared to control: significant decrease
  RETIC compared to control: significant decrease
Sprague Dawley rats [5]; 2000 mg/kg/day oral gavage
  Fibrinogen (FIB), Mean: 2.35** g/L
  Prothrombin Time (PT), Mean: 10.69** sec
  Activated Partial Thromboplastic Time (APTT), Mean: 15.03* sec
Sprague Dawley rats [5]; [11]
  Fibrinogen (FIB), Mean: 2.26** g/L
  Prothrombin Time (PT), Mean: 10.81** sec
  Activated Partial Thromboplastic Time (APTT), Mean: 15.73** sec
Sprague Dawley rats [5]; 2 g/kg/day dose
  APTT compared to control: significant increase
  FIB concentration compared to control: significant decrease
  PT compared to control: significant increase
Sprague Dawley rats [5]; 3 g/kg/day dose
  APTT compared to control: significant increase
  FIB concentration compared to control: significant decrease
  PT compared to control: significant increase
Sprague Dawley rats [6]
  tolerability of the highest dose: not well tolerated
rats
  adverse effects at the highest dose tested: no adverse effects
[7]
  stability of the test item in the vehicle: stable

## CC/C=C\CC(O)/C=C/C=C\C/C=C\C/C=C\CCCC(=O)O (stereo not shown) [15-HEPE, 15-hydroxy-eicosa-5Z,8Z,11Z,13E,17Z-pentaenoic acid]
[1]
  TGF-β induced EMT (pro-fibrotic) protein production: blocked
Type II TGF-β receptor
  degradation of type II TGF-β receptor: induced degradation
[2]
  TGF-β-stimulated intracellular signaling (SMAD2/3 phosphorylation): inhibited
[8]; 37° C., 0, 1, 4, 24 hours
  abundance of TβR-I proteins: did not affect
[8]; 24 hours treatment
  translocation of TβR-I to lipid-raft: induced translocation
[3]; Mv1Lu cells, 100 μM, 24 hours treatment
  TβR-II degradation: induce degradation
[3]; Mv1Lu cells, 100 μM, from 1 to 4 hours
  TβR-II translocation: induced TβR-II translocation
[3]
  translocation and degradation of type II TGF-β receptors: induced translocation and degradation
[9]
  localization and abundance of TβR-III: did not change
[10]
  localization and abundance of EGFR: did not change
caveolin-1
  localization and abundance of caveolin-1: did not change
